From patent publication US11673889B2, “Substituted imidazo[4,5-c][1,8]naphthyridines as phosphodiesterase inhibitors” (Nanjing Zhengxiang Pharmaceuticals Co., Ltd., priority 2019, dated 2023)

Key:
human soluble ENPP1 [1] = molecular target: T1, human soluble ENPP1 (Homo sapiens, UniProt P22413); test: ENPP1 activity assay using p-Nitrophenyl-5′-TMP as a substrate; format: biochemical
T1 construct: 20 ng of human soluble ENPP1
T1 sequence (P22413 103-925 limits assumed): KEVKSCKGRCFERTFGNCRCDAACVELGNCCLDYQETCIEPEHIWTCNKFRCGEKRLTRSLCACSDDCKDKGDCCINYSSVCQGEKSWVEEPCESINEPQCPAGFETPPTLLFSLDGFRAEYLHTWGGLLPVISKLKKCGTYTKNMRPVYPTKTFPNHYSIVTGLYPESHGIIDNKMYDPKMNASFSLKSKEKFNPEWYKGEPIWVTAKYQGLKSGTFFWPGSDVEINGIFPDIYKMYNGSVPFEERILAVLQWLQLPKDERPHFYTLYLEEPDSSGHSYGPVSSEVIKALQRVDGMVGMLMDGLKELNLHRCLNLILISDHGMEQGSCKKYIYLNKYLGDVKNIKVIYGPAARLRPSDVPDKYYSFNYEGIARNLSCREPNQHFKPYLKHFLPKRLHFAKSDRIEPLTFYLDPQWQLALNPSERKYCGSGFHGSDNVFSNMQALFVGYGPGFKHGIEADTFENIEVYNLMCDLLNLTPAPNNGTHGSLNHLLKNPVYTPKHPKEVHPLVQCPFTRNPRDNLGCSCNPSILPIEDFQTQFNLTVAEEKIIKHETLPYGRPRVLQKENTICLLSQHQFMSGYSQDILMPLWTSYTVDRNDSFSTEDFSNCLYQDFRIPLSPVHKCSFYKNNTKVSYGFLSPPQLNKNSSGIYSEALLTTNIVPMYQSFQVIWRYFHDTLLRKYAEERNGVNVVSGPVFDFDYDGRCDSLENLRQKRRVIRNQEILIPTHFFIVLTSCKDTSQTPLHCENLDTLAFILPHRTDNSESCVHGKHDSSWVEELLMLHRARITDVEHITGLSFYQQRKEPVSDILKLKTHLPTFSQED
How it was run: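 Percent inhibition, set against uninhibited-enzyme and blank wells, was fitted to a four-parameter variable-slope model for IC50. Chromogenic read-out was p-nitrophenol released from TMP-pNP, added as a 2 mM […] solution for 1 h at RT. Before that, 20 ng soluble ENPP1 sat 30 min with compound.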

human soluble ENPP1 [2] = molecular target: T1, human soluble ENPP1; test: ENPP1 activity assay using p-Nitrophenyl-5′-AMP as a substrate; format: biochemical
How it was run: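 Absorbance at 405 nm tracks p-nitrophenol from AMP-pNP hydrolysis after 1 h at room temperature, substrate added as 3 mM (2× final) following 30 min enzyme–compound preincubation. Enzyme: 35 ng human soluble ENPP1. IC50 fitted (variable-slope four-parameter) from percent inhibition normalized to max and blank.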

ENPP-1, MDA-MB-231 cells = molecular target: T2, ENPP-1, MDA-MB-231 cells (Homo sapiens, UniProt P22413); test: cell-based; details: for inhibition at 20 µM: MDA-MB-231, read-out: % Inhibition (at 20 μM)
T2 sequence (P22413 1-925): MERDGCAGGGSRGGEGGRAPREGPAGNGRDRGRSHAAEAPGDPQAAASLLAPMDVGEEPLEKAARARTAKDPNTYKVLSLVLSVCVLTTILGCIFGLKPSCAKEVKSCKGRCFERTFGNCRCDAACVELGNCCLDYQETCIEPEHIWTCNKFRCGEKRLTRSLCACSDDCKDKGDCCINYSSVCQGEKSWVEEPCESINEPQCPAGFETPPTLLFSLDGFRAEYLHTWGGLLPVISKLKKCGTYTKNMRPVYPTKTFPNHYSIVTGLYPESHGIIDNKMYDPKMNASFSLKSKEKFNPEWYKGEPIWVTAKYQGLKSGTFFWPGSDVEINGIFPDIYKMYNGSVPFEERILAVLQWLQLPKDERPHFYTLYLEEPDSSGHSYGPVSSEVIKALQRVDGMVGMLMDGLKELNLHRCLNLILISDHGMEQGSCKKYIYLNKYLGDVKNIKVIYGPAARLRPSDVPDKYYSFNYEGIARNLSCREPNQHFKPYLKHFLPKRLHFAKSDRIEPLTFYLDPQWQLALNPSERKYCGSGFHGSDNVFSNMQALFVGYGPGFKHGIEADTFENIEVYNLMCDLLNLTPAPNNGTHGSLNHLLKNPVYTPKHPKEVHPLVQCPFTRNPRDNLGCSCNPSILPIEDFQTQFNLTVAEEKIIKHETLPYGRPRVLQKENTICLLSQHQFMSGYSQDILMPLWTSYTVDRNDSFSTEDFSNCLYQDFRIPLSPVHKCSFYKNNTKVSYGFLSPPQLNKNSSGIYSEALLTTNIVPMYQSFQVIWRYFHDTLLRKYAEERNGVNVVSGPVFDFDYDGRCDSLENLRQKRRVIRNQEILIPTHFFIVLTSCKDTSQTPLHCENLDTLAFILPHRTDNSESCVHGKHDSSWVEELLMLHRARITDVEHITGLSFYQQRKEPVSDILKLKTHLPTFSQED

Pharmacokinetics in mice = format: in vivo; details: mouse, plasma, male CD-1 mice, 1 mg/kg, iv; for Vd: read-out: Vdss
Procedure: A dosing solution of test sample was prepared at 1.0 mg/mL in 5% DMSO/40% PEG400/55% water and administered to male CD-1 mice (4-6 weeks old, 20-30 grams, 3 animals each group) via intravenous (IV) bolus at 1 mg/kg and by oral gavage (PO) at 5 mg/kg. Blood samples (˜0.03 mL each time point) were collected via the jugular vein into tubes containing sodium heparin as the anticoagulant at 0.033, 0.083, 0.25, 0.5, 1, 2, 4, 8 and 24 hours post dose for IV administration and 0.083, 0.25, 0.5, 1, 2, 4, 8 and 24 hours post dose for PO administration. The blood samples were then centrifuged for 5 minutes in a centrifuge refrigerated at 4° C. The resultant plasma samples were analyzed using LC/MS/MS to determine concentrations of test sample. Non-compartmental model with WinNonlin (Phoenix™, version 8.0) software was used to calculate pharmacokinetic (PK) parameters.

[3] = substrate TMP-pNP, 20 ng human soluble ENPP1, Tris buffer pH 9.5, read-out: TMP-pNP (IC50)

Compound	IC50 (human soluble ENPP1 [1]) [nM]	IC50 (human soluble ENPP1 [2]) [nM]	IC50 (ENPP-1, MDA-MB-231 cells) [nM]	inhibition at 20 µM (ENPP-1, MDA-MB-231 cells) [%]	AUC (Pharmacokinetics in mice) [ng·h/mL]	clearance (Pharmacokinetics in mice) [mL/min/kg]	half-life (Pharmacokinetics in mice) [h]	Vd (Pharmacokinetics in mice) [L/kg]	IC50 (human soluble ENPP1 [1]; [3]) [nM]
COc1ccc2c(ncc3nnn(Cc4ccc(S(N)(=O)=O)c(F)c4)c32)n1 [Compound 120, 2-fluoro-4-((7-methoxy-1H-[1,2,3]triazolo[4,5-c][1,8]naphthyridin-1-yl)methyl)benzenesulfonamide]	1.78	4.4	1100	79	260	65	2	8.9	–
COc1ccc2c(ncc3[nH]c(=O)n(Cc4ccc(S(N)(=O)=O)cc4)c32)n1 [Compound 38, 4-((7-methoxy-2-oxo-2,3-dihydro-1H-imidazo[4,5-c][1,8]naphthyridin-1-yl)methyl)benzenesulfonamide]	0.31	0.75	–	–	370	45	1.9	3.3	–
COc1ccc2c(n1)nc(C)c1nc(CN(C)C)n(Cc3cc(F)c(S(N)(=O)=O)cc3F)c12 [Compound 92, 4-((2-((dimethylamino)methyl)-7-methoxy-4-methyl-1H-imidazo[4,5-c][1,8]naphthyridin-1-yl)methyl)-2,5-difluorobenzenesulfonamide]	9.3	29	4100	68	–	–	–	–	–
COc1ccc2c(ncc3ncn(Cc4ccc(S(N)(=O)=O)cc4C(F)(F)F)c32)n1 [Compound 67, 4-((7-methoxy-1H-imidazo[4,5-c][1,8]naphthyridin-1-yl)methyl)-3-(trifluoromethyl)benzenesulfonamide]	–	8.6	1300	80	–	–	–	–	2.3
COc1ccc2c(ncc3[nH]c(=O)n(Cc4ccc(S(N)(=O)=O)cn4)c32)n1 [Compound 99, 6-((7-methoxy-2-oxo-2,3-dihydro-1H-imidazo[4,5-c][1,8]naphthyridin-1-yl)methyl)pyridine-3-sulfonamide]	0.27	0.79	600	77	–	–	–	–	–
COc1ccc2c(ncc3cnn(Cc4ccc(S(N)(=O)=O)cn4)c32)n1 [Compound 135a, 6-((7-methoxy-1H-pyrazolo[4,3-c][1,8]naphthyridin-1-yl)methyl)pyridine-3-sulfonamide]	0.66	1.4	80	88	–	–	–	–	–
COc1ccc2c(n1)nc(C)c1ncn(Cc3ccc(S(N)(=O)=O)cn3)c12 [Compound 87, 6-((7-methoxy-4-methyl-1H-imidazo[4,5-c][1,8]naphthyridin-1-yl)methyl)pyridine-3-sulfonamide]	1.3	4	360	85	–	–	–	–	–
CCC(=O)NS(=O)(=O)c1cc(F)c(Cn2c(=O)[nH]c3cnc4nc(OC)ccc4c32)c(F)c1 [Compound 105, sodium ((3,5-difluoro-4-((7-methoxy-2-oxo-2,3-dihydro-1H-imidazo[4,5-c][1,8]naphthyridin-1-yl)methyl)phenyl)sulfonyl)(propionyl)amide]	–	19	> 6700	67	–	–	–	–	21
COc1ccc2c(c1)nnc1[nH]c(=O)n(Cc3ccc(S(N)(=O)=O)cc3F)c12 [Compound 123, 3-fluoro-4-((7-methoxy-2-oxo-2,3-dihydro-1H-imidazo[4,5-c]cinnolin-1-yl)methyl)benzenesulfonamide]	–	2.4	1800	66	–	–	–	–	0.61
COc1ccc2c(ncc3[nH]c(=O)n([C@H](C)c4ccc(S(N)(=O)=O)cc4)c32)n1 [Compound 101, (R)-4-(1-(7-methoxy-2-oxo-2,3-dihydro-1H-imidazo[4,5-c][1,8]naphthyridin-1-yl)ethyl)benzenesulfonamide]	0.67	1.1	2400	76	–	–	–	–	–
COc1ccc2c(ncc3[nH]c(=O)n(Cc4ccc(S(N)(=O)=O)c(F)c4)c32)n1 [Compound 98, 2-fluoro-4-((7-methoxy-2-oxo-2,3-dihydro-1H-imidazo[4,5-c][1,8]naphthyridin-1-yl)methyl)benzenesulfonamide]	–	3	3800	62	–	–	–	–	0.6
COc1ccc2c(ncc3[nH]c(=O)n(Cc4c(F)cc(S(N)(=O)=O)c(F)c4F)c32)n1 [Compound 112, 2,3,5-trifluoro-4-((7-methoxy-2-oxo-2,3-dihydro-1H-imidazo[4,5-c][1,8]naphthyridin-1-yl)methyl)benzenesulfonamide]	–	0.99	70	80	–	–	–	–	0.3
COc1ccc2c(ncc3nc(CS(C)(=O)=O)n(Cc4ccc(S(N)(=O)=O)c(F)c4)c32)n1 [Compound 81, 2-fluoro-4-((7-methoxy-2-((methylsulfonyl)methyl)-1H-imidazo[4,5-c][1,8]naphthyridin-1-yl)methyl)benzenesulfonamide]	6.9	23	4900	63	–	–	–	–	–
COc1ccc2c(ncc3nc(C4CCOCC4)n(Cc4ccc(S(N)(=O)=O)cn4)c32)n1 [Compound 75, 6-((7-methoxy-2-(tetrahydro-2H-pyran-4-yl)-1H-imidazo[4,5-c][1,8]naphthyridin-1-yl)methyl)pyridine-3-sulfonamide]	0.24	0.68	310	81	–	–	–	–	–
COCCn1c(=O)n(Cc2c(F)cc(S(N)(=O)=O)cc2F)c2c3ccc(OC)nc3ncc21 [Compound 132, 3,5-difluoro-4-((7-methoxy-3-(2-methoxyethyl)-2-oxo-2,3-dihydro-1H-imidazo[4,5-c][1,8]naphthyridin-1-yl)methyl)benzenesulfonamide]	–	0.74	–	87	–	–	–	–	0.33
COc1ccc2c(n1)nc(C)c1nc(CO)n(Cc3cc(F)c(S(N)(=O)=O)cc3F)c12 [Compound 94, 2,5-difluoro-4-((2-(hydroxymethyl)-7-methoxy-4-methyl-1H-imidazo[4,5-c][1,8]naphthyridin-1-yl)methyl)benzenesulfonamide]	3.4	8.8	2700	74	–	–	–	–	–
